Tests used:
phospho-AKT (Ser129) = test: Western blot analyses of pAKT and AKT in MDA-MB-231 cells; type: cell-based; conditions: 24 h exposure
MDA-MB-231 cells [1] = test: MDA-MB-231 cell viability assay; type: cell-based; conditions: 48 h, up to 10 μM
MDA-MB-231 cells [2] = conditions: 2–10 μM, 24–72 h, WST-1; cited from earlier work
[3] = test system: 13 multiple myeloma cell lines; conditions: cited from earlier work
PAMPA = type: in vitro ADME; conditions: correlation
DYRKs and HIPKs = test: Enzymatic profiling, 8-member DYRK and HIPK panel; type: biochemical; conditions: 1 μM
Kinetic solubility = conditions: for measured solubility relative to the dose concentration: actual solubility estimated to be higher than Table 1; for solubility kinetic at 24 h: pH 7.4, kinetic solubility, PBS pH 7.4, 24-hour incubation
PIP5K1C = PIP5K1C (Homo sapiens, UniProt O60331); test: Enzymatic assay, dose-response; type: biochemical
CK2α and CK2α′ = test: CK2 NanoBRET assays

Chain of PIP5K1C (O60331 whole entry): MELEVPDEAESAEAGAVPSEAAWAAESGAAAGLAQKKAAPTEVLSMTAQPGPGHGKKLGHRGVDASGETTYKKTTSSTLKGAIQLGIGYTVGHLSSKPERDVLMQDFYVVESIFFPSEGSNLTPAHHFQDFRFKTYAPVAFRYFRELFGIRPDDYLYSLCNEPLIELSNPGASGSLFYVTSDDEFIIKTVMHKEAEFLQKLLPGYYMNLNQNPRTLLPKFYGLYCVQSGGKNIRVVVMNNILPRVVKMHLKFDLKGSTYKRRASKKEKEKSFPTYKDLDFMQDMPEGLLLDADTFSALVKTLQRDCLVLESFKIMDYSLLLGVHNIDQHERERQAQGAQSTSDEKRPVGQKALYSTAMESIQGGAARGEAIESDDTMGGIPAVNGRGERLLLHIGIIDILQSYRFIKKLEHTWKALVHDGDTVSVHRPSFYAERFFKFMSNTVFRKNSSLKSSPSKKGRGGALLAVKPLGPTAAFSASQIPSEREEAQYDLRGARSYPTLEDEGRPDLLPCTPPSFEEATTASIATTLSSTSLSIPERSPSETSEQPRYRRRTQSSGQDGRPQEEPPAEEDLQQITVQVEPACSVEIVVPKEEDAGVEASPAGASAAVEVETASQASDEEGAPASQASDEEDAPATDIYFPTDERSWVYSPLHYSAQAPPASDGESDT

| SMILES | activity in DYRK and HIPK enzymatic panel (DYRKs and HIPKs) | measured solubility relative to the dose concentration (Kinetic solubility) | solubility kinetic at 24 h (Kinetic solubility) | other results |
| --- | --- | --- | --- | --- |
| O=C(O)c1ccc2c(c1)nc(Nc1cccc(Cl)c1)c1ccncc12 [CX-4945, 5-(3-chlorophenylamino)benzo[c][2,6]naphthyridine-8-carboxylic acid, reference compound] | – | – | – | AKT phosphorylation (phospho-AKT (Ser129)): dose-dependent inhibition of AKT phosphorylation; total AKT expression (phospho-AKT (Ser129)): no impact on total AKT expression; cytotoxicity (MDA-MB-231 cells [1]): did not exhibit cytotoxicity; cell growth (MDA-MB-231 cells [2]): cell growth is inhibited; antiproliferative activity [3]: low micromolar antiproliferative activity |
| N#Cc1cccc(Nc2nc3cc(C(=O)O)ccc3c3cncnc23)c1 [CX-5011, reference compound] | – | – | – | cytotoxicity (MDA-MB-231 cells [1]): did not exhibit cytotoxicity |
| O=C(O)c1ccc2c(c1)nc(NCc1ccccc1)c1ncncc12 [Compound 2] | lacked activity against DYRKs and HIPKs | greater than 75% | > 100 µM | human fraction absorbed (%FA) correlated with PAMPA Pe (PAMPA): greater than 80%; AKT phosphorylation (phospho-AKT (Ser129)): dose-dependent inhibition of AKT phosphorylation; total AKT expression (phospho-AKT (Ser129)): no impact on total AKT expression; cytotoxicity (MDA-MB-231 cells [1]): neither compound 2 nor SGC-CK2-1 exhibited significant cytotoxicity |
| O=C(O)c1ccc2c(c1)nc(NCc1ccccc1)c1ncccc12 [Compound 7] | – | – | – | human fraction absorbed (%FA) correlated with PAMPA Pe (PAMPA): greater than 80%; PIP5K1C inhibition, enzymatic follow-up (PIP5K1C): did not result in PIP5K1C inhibition; cytotoxicity (MDA-MB-231 cells [1]): did not exhibit cytotoxicity; binding in CK2α and CK2α′ NanoBRET assays (CK2α and CK2α′): not bind either kinase at concentrations up to 10 μM |
| COc1cccc(CCNc2nc3cc(C(=O)O)ccc3c3cncnc23)c1 [Compound 8] | lacked activity against DYRKs and HIPKs | greater than 75% | > 100 µM | – |
| O=C(O)c1ccc2c(c1)nc(NCCc1cccc(Cl)c1)c1ncncc12 [Compound 9] | lacked activity against DYRKs and HIPKs | – | > 100 µM | – |
| O=C(O)c1ccc2c(c1)nc(NCCc1cccc(F)c1)c1ncncc12 [Compound 10] | potent inhibition of just one kinase | – | > 100 µM | – |
| O=C(O)c1ccc2c(c1)nc(Nc1ccc3ccccc3c1)c1ncncc12 [Compound 11] | – | – | – | observation during solubility assessment (Kinetic solubility): insoluble residue |
| O=C(O)c1ccc2c(c1)nc(Nc1ccc(Cl)cc1)c1ncncc12 [Compound 12] | – | greater than 75% | – | – |
| O=C(O)c1ccc2c(c1)nc(Nc1cccc(F)c1)c1ncncc12 [Compound 13] | – | greater than 75% | – | – |
| O=C(O)c1ccc2c(c1)nc(Nc1ccccc1Cl)c1ncncc12 [Compound 15] | – | – | – | observation during solubility assessment (Kinetic solubility): insoluble residue |
| O=C(O)c1ccc2c(c1)nc(Nc1ccccc1)c1ncncc12 [Compound 16] | – | greater than 75% | – | – |
| O=C(O)c1ccc2c(c1)nc(NCCc1ccccc1)c1ncncc12 [Compound 17] | potent inhibition of just one kinase | – | > 100 µM | – |
| O=C(O)c1ccc2c(c1)nc(NCCc1cccc(Cl)c1)c1ccncc12 [Compound 18] | potent inhibition of just one kinase | greater than 75% | > 100 µM | – |
| O=C(O)c1ccc2c(c1)nc(NCc1ccccc1)c1ccncc12 [Compound 21] | lacked activity against DYRKs and HIPKs | greater than 75% | > 100 µM | – |
| O=C(O)c1ccc2c(c1)nc(NCCc1cccc(F)c1)c1ccncc12 [Compound 22] | – | greater than 75% | > 100 µM | – |
| O=C(O)c1ccc2c(c1)nc(Nc1cccc(F)c1)c1ccncc12 [Compound 23] | – | greater than 75% | – | – |
| COc1cccc(CCNc2nc3cc(C(=O)O)ccc3c3cnccc23)c1 [Compound 24] | potent inhibition of just one kinase | greater than 75% | > 100 µM | – |
| O=C(O)c1ccc2c(c1)nc(Nc1ccccc1)c1ccncc12 [Compound 25] | – | greater than 75% | – | – |
| O=C(O)c1ccc2c(c1)nc(NCCc1ccccc1)c1ccncc12 [Compound 27, 5-(phenethylamino)benzo[c][2,6]naphthyridine-8-carboxylic acid] | – | greater than 75% | > 100 µM | – |
| COc1cccc(Nc2nc3cc(C(=O)O)ccc3c3cnccc23)c1 [Compound 28, 5-((3-methoxyphenyl)amino)benzo[c][2,6]naphthyridine-8-carboxylic acid] | – | greater than 75% | – | – |

Reference: article PMC10108397 (ACS Medicinal Chemistry Letters, 2023)
